In patent US9949970B2, “Synthesis of new benzothiazole derivatives as potential anti-tubercular agents” (priority 2010, dated 2018):
In brackets after ≈: the same amount, converted by molar mass. Where two headings read alike, the source gives them in different places.

Assays:
[1] = tested on: M. tuberculosis H37Rv; experiment: Antimycobacterial activity: MIC by broth microdilution / Nitrate Reductase Assay; type: cell-based, Mycobacterium tuberculosis; conditions: lowest concentration showing no colour change (NRA)
[2] = tested on: AML-12 cell lines; experiment: Cytotoxicity MTT assay on AML-12 cell lines; type: cell-based; conditions: for Cytotoxicity: AML-12 cell line, MTT, 24 hrs, test material 2-100 μg/ml; for Cytotoxicity (result in words): AML-12 cell lines, MTT assay
Description: The potent compounds 3j, 4e, 6a, 6f, 6g, 6i, and 6p were evaluated for cytotoxic effect on AML-12 cell lines using MTT assay, in a 96 well plate format. Cells were incubated in Dulbecco's Modified Eagle's Medium (DMEM) containing 10% fetal calf serum (FCS) with the test material (2-100 μg/ml) for 24 hrs. at 37° C. in CO2 incubator. After the completion of incubation 3-(4,5-dimethylthiazol-2-yl)-2,5-diphenyltetrazolium bromide (MTT) was added and cells were further incubated for 3 h at 37° C. in CO2 incubator. Formation of formazan salt by mitochondrial dehydrogenases, and was determined by Elisa reader at 565 nm (Multiskan Spectrum; Thermo Electron Corporation, USA). The percentage cytotoxicity was calculated with respect to the untreated cells.

[3] = Mycobacterium tuberculosis, H37RV, read-out: MIC
[4] = Mycobacterium tuberculosis, H37RV

Molecule	MIC [1, 3]	other results
O=C(NNc1nc2ccc(C(F)(F)F)cc2s1)c1ccc([N+](=O)[O-])o1 [Compound 4d, N′2-(6-trifluoromethyl-1,3-benzothiazol-2-yl)-5-nitro-2-furancarbohydrazide]	> 16 µg/mL	
O=C(NNc1nc2ccc(Cl)cc2s1)c1ccc([N+](=O)[O-])o1 [Compound 4g, N′2-(6-chloro-1,3-benzothiazol-2-yl)-5-nitro-2-furanecarbohydrazide]	> 16 µg/mL	
O=[N+]([O-])c1ccc(C=NNc2nc3ccccc3s2)s1 [Compound 3b, 5-nitro-2-thiophenecarbaldehyde 2-(1,3-benzothiazole-2-yl)hydrazone]	> 16 µg/mL	
Cc1ccc2nc(NN=Cc3ccc([N+](=O)[O-])o3)sc2c1 [Compound 3c, 5-nitro-2-furaldehyde 2-(6-methyl-1,3-benzothiazole-2-yl)hydrazone]	> 16 µg/mL	
O=[N+]([O-])c1ccc(C=NNc2nc3ccc(C(F)(F)F)cc3s2)s1 [Compound 3h, 5-nitro-2-thiophenecarbaldehyde 2-(6-trifluoromethyl-1,3-benzothiazole-2-yl)hydrazone]	> 16 µg/mL	
N3-(6-{[(5-nitro-2-furyl)carbonyl]amino}-1,3-benzothiazol-2-yl)nicotinamide [Compound 6o]		Cytotoxicity [2]: >100 µg/mL; Cytotoxicity (result in words) [2]: no cytotoxicity; MIC [1]: 4.0 µg/mL
O=[N+]([O-])c1ccc(C=NNc2nc3ccc(C(F)(F)F)cc3s2)o1 [Compound 3g, 5-nitro-2-furaldehyde 2-(6-trifluoromethyl-1,3-benzothiazole-2-yl)hydrazone]	> 16 µg/mL	
Cc1ccc2nc(NNC(=O)c3ccc([N+](=O)[O-])o3)sc2c1 [Compound 4b, N′2-(6-methyl-1,3-benzothiazol-2yl)-5-nitro-2-furancarbohydrazide]	> 16 µg/mL	
O=C(NNc1nc2ccccc2s1)c1ccc([N+](=O)[O-])o1 [Compound 4a, N′2-(1,3-benzothiazol-2-yl)-5-nitro-2-furancarbohydrazide]	> 16 µg/mL	
O=[N+]([O-])c1ccc(C=NNc2nc3ccccc3s2)o1 [Compound 3a, 5-nitro-2-furaldehyde 2-(1,3-benzothiazole-2-yl)hydrazone]	> 16 µg/mL	
COc1ccc2nc(NN=Cc3ccc([N+](=O)[O-])s3)sc2c1 [Compound 3f, 5-nitro-2-thiophenecarbaldehyde 2-(6-methoxy-1,3-benzothiazole-2-yl)hydrazone]	> 16 µg/mL	
O=[N+]([O-])c1ccc(C=NNc2nc3ccc(F)cc3s2)s1 [Compound 3l, 5-nitro-2-thiophenecarbaldehyde 2-(6-fluoro-1,3-benzothiazole-2-yl)hydrazone]	> 16 µg/mL	
Cc1ccc2nc(NN=Cc3ccc([N+](=O)[O-])s3)sc2c1 [Compound 3d, 5-nitro-2-thiophenecarbaldehyde 2-(6-methyl-1,3-benzothiazole-2-yl)hydrazone]	> 16 µg/mL	
O=[N+]([O-])c1ccc(C=NNc2nc3ccc(OC(F)(F)F)cc3s2)o1 [Compound 3i, 5-nitro-2-furaldehyde 2-(6-trifluoromethoxy-1,3-benzothiazole-2-yl)hydrazone]	> 16 µg/mL	
O=[N+]([O-])c1ccc2nc(NN=Cc3ccc([N+](=O)[O-])o3)sc2c1 [Compound 3o, 5-nitro-2-furaldehyde 2-(6-nitro-1,3-benzothiazole-2-yl)hydrazone]		MIC [1, 4]: 16 µg/mL (≈ 48 µM)
COc1ccc2nc(NNC(=O)c3ccc([N+](=O)[O-])o3)sc2c1 [Compound 4c, N′2-(6-methoxy-1,3-benzothiazol-2-yl)-5-nitro-2-furancarbohydrazide]	> 16 µg/mL	
NNC(=O)c1ccncc1 [INH, Isoniazid, reference compound]	0.5 µg/mL (≈ 3.65 µM)	
O=[N+]([O-])c1ccc2nc(NN=Cc3ccc([N+](=O)[O-])s3)sc2c1 [Compound 3p, 5-nitro-2-thiophenecarbaldehyde 2-(6-nitro-1,3-benzothiazole-2-yl)hydrazone]		MIC [1, 4]: > 16 µg/mL
O=C(NNc1nc2ccc([N+](=O)[O-])cc2s1)c1ccc([N+](=O)[O-])o1 [Compound 4h, N′2-(6-nitro-1,3-benzothiazol-2-yl)-5-nitro-2-furanecarbohydrazide]		MIC [1, 4]: 16 µg/mL (≈ 45.8 µM)
COc1ccc2nc(NN=Cc3ccc([N+](=O)[O-])o3)sc2c1 [Compound 3e, 5-nitro-2-furaldehyde 2-(6-methoxy-1,3-benzothiazole-2-yl)hydrazone]	> 16 µg/mL	
O=C(Nc1nc2ccc(NC(=O)c3ccc([N+](=O)[O-])o3)cc2s1)c1ccccc1 [Compound 6a, N2-[2-(benzoylamino)-1,3-benzothiazol-6-yl]-5-nitrofuramide]	0.5 to 8 µg/mL (≈ 1.22 to 19.6 µM)	Cytotoxicity [2]: >100 µg/mL; Cytotoxicity (result in words) [2]: no cytotoxicity; MIC [1]: 1 µg/mL (≈ 2.45 µM)
O=C(NNc1nc2ccc(OC(F)(F)F)cc2s1)c1ccc([N+](=O)[O-])o1 [Compound 4e, N′2-(6-trifluoromethoxy-1,3-benzothiazol-2-yl)-5-nitro-2-furanecarbohydrazide]		Cytotoxicity [2]: >100 µg/mL; Cytotoxicity (result in words) [2]: no cytotoxicity
O=C(Nc1nc2ccc(NC(=O)c3ccc([N+](=O)[O-])o3)cc2s1)c1cnccn1 [Compound 6p, N2-(6-{[(5-nitro-2-furyl)carbonyl]amino}-1,3-benzothiazol-2-yl)-2-pyrazinecarboxamide]		Cytotoxicity [2]: >100 µg/mL; Cytotoxicity (result in words) [2]: no cytotoxicity; MIC [1]: 1 µg/mL (≈ 2.44 µM)
N2-(2-{[(E)-3-phenyl-2-propenoyl]amino}-1,3-benzothiazol-6-yl}-5-nitro-2-furamide [Compound 6q]		Cytotoxicity [2]: >100 µg/mL; Cytotoxicity (result in words) [2]: no cytotoxicity; MIC [1]: 8.0 µg/mL
O=[N+]([O-])c1ccc(C=NNc2nc3ccc(F)cc3s2)o1 [Compound 3k, 5-nitro-2-furaldehyde 2-(6-fluoro-1,3-benzothiazole-2-yl)hydrazone]	> 16 µg/mL	
O=[N+]([O-])c1ccc(C=NNc2nc3ccc(OC(F)(F)F)cc3s2)s1 [Compound 3j, 5-nitro-2-thiophenecarbaldehyde 2-(6-trifluoromethoxy-1,3-benzothiazole-2-yl)hydrazone]	0.5 to 8 µg/mL (≈ 1.29 to 20.6 µM)	Cytotoxicity [2]: >100 µg/mL; Cytotoxicity (result in words) [2]: no cytotoxicity; MIC [1]: 1 µg/mL (≈ 2.57 µM)
N2-(2-{[(E)-3-(4-chlorophenyl)-2-propenoyl]amino}-1,3-benzothiazol-6-yl)-5-nitro-2-furamide [Compound 6w]		Cytotoxicity [2]: >100 µg/mL; Cytotoxicity (result in words) [2]: no cytotoxicity
O=C(NNc1nc2ccc(F)cc2s1)c1ccc([N+](=O)[O-])o1 [Compound 4f, N′2-(6-fluoro-1,3-benzothiazol-2-yl)-5-nitro-2-furanecarbohydrazide]	> 16 µg/mL	
O=[N+]([O-])c1ccc(C=NNc2nc3ccc(Cl)cc3s2)s1 [Compound 3n, 5-nitro-2-thiophenecarbaldehyde 2-(6-chloro-1,3-benzothiazole-2-yl)hydrazone]	> 16 µg/mL	
O=[N+]([O-])c1ccc(C=NNc2nc3ccc(Cl)cc3s2)o1 [Compound 3m, 5-nitro-2-furaldehyde 2-(6-chloro-1,3-benzothiazole-2-yl)hydrazone]	16 µg/mL (≈ 49.6 µM)	
